Assay results published in patent US20100004234A1, “SPECIFIC KINASE INHIBITORS” (Kosan Biosciences Incorporated, priority 2004, published 2010).
Like-named read-outs stand apart in the source and are kept apart here.

Experiments:
[1] = target: ERK2 (UniProt P28482); type: biochemical; design: Ki; other: ERK2; 1 mM ATP; kinact; T1/2; kinact/Ki; "the target Cys 172 residue; conditions: ERK2
Protocol: (§1) In either case, the time dependent inactivation can be dampened by the presence of a competing substrate, in this case ATP.
(§2) For covalent inhibitors, plots of log (activity) versus time provide apparent first-order rate constants (kobsd) of enzyme activity loss. If these assays are performed at varying concentrations of inhibitor, a series of first-order plots is obtained and kobsd obtained at each inhibitor concentration. […] Such molecules may be competitive inhibitors but should not show time-dependent inactivation.
(§3) Inhibition progress curve analysis was performed using continuous, colorimetric, or fluorimetric assays. All experiments were done at 1 mM ATP, with the exception of KDR (at 5 mM ATP).
(§4) MEK1 assays were performed using pre-incubation experiments with radioactive [^32P]ATP and filter binding of product. All other kinases were analyzed using progress curve analysis from a continuous spectrophotometric assay.

[2] = tested on: A375 xenograft; assay: B-Raf mutant melanoma (A375) xenograft model; type: in vivo
Text: The sensitivity of B-Raf mutated cancer cell lines to RALs was confirmed in a B-Raf mutant melanoma (A375) xenograft model.

[3] = tested on: p70S6K(h); assay: Kinase panel, residual activity; type: biochemical, human; conditions: 0.2 μM
Protocol: (§5) In this panel of 124 kinases, 18 of the 19 kinases identified as having an active site cysteine were inhibited to some extent by hypothemycin at a concentration of 0.2 μM and/or 2 μM.

[4] = target: cSRC(h) (Homo sapiens, UniProt P12931); assay: Kinase panel, residual activity; type: biochemical; conditions: read-out: Percent residual activity
Chain of cSRC(h) (P12931 whole entry): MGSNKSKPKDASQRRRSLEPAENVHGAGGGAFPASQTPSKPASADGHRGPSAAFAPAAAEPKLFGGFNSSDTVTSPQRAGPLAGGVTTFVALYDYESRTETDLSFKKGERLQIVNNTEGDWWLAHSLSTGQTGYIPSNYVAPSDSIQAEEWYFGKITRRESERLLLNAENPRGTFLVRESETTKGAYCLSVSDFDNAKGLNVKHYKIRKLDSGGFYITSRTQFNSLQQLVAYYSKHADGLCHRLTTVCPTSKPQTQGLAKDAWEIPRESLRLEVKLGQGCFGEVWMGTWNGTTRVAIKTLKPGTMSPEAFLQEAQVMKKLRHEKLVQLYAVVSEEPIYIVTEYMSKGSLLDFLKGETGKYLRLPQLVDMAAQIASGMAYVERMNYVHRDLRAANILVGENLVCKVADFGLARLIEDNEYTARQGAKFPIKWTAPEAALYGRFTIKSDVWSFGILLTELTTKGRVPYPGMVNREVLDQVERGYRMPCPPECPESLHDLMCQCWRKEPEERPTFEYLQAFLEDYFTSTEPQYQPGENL
Protocol: as §5

[5] = target: cKit(h) (Homo sapiens, UniProt P10721); assay: Kinase panel, residual activity; type: biochemical; conditions: read-out: Percent residual activity
Chain of cKit(h) (P10721 26-976): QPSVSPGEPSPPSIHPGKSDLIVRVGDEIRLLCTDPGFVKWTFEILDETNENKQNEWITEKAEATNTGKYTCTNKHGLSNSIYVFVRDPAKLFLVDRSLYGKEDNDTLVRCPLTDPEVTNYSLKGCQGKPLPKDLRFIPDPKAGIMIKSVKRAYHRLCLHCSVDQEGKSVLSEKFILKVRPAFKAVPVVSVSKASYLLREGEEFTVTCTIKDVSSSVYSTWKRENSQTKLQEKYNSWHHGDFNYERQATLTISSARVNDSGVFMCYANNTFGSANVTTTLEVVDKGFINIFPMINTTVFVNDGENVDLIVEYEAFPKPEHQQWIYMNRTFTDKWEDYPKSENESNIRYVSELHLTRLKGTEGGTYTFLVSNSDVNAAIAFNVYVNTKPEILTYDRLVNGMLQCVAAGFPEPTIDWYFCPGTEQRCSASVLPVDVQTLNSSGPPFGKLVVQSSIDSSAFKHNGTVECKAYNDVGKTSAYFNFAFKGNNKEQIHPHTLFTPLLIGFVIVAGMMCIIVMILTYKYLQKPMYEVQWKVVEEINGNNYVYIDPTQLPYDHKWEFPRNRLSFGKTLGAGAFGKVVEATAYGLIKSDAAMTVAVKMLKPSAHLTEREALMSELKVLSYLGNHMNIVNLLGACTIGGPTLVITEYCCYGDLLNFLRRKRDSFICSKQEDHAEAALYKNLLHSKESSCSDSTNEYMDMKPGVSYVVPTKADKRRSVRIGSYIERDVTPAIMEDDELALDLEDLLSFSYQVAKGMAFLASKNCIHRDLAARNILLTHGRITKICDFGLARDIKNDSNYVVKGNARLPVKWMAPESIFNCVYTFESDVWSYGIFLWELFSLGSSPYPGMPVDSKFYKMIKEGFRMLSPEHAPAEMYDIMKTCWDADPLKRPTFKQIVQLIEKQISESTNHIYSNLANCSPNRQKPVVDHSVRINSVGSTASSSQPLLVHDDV
Protocol: as §5

[6] = target: TAK1(h) (Homo sapiens, UniProt O43318); assay: Kinase panel, residual activity; type: biochemical; conditions: read-out: Percent residual activity
Chain of TAK1(h) (O43318 1-303 limits assumed): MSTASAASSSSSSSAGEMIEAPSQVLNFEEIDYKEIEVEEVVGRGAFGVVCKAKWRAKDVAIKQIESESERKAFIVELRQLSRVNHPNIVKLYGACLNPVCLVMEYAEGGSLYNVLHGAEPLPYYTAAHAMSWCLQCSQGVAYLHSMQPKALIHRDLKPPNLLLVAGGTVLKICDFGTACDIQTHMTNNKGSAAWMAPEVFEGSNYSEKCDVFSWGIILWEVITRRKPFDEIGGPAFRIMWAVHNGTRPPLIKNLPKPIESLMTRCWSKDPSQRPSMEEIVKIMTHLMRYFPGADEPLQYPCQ
Chain of TAK1(h) (Q15750 437-504 partner limits assumed): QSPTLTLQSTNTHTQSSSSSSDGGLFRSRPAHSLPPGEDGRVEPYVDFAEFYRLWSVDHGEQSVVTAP
Protocol: as §5

[7] = target: PAK4(h) (Homo sapiens, UniProt O96013); assay: Kinase panel, residual activity; type: biochemical; conditions: read-out: Percent residual activity
Protocol: as §5

[8] = target: NEK2(h) (Homo sapiens, UniProt P51955); assay: Kinase panel, residual activity; type: biochemical; conditions: read-out: Percent residual activity
Protocol: as §5

[9] = target: ZIPK(h) (Homo sapiens, UniProt O43293); assay: Kinase panel, residual activity; type: biochemical; conditions: read-out: Percent residual activity
Protocol: as §5

[10] = target: Axl(h) (Homo sapiens, UniProt P30530); assay: Kinase panel, residual activity; type: biochemical; conditions: read-out: Percent residual activity
Protocol: as §5

[11] = target: Fms(h) (Homo sapiens, UniProt P07333); assay: Kinase panel, residual activity; type: biochemical; conditions: read-out: Percent residual activity
Chain of Fms(h) (P07333 20-972): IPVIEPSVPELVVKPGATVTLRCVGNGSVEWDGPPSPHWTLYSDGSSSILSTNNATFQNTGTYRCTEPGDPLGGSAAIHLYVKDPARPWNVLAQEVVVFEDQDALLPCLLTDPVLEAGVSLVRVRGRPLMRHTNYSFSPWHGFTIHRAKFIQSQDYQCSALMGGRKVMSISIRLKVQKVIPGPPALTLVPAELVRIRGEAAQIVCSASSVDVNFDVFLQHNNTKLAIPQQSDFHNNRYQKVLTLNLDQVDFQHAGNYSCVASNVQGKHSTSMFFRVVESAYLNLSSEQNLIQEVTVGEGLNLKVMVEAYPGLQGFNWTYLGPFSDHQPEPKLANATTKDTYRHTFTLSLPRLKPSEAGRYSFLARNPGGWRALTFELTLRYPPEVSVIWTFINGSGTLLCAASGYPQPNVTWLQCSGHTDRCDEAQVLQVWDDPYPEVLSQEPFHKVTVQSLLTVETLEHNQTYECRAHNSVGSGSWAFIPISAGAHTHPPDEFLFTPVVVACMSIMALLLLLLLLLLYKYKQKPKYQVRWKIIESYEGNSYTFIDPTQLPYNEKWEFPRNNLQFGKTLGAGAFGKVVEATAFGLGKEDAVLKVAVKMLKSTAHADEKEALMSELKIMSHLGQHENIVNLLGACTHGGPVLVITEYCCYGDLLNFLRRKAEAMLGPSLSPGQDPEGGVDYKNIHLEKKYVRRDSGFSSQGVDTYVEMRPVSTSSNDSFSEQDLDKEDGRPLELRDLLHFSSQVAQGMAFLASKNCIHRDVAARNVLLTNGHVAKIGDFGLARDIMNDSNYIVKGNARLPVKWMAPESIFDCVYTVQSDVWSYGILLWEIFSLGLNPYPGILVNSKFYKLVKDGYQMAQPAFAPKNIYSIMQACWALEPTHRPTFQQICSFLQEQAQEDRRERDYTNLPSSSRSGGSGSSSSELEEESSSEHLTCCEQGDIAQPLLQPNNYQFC
Protocol: as §5

[12] = target: CDK7/cyclinH/MAT1(h) (Homo sapiens, UniProt P50613); assay: Kinase panel, residual activity; type: biochemical; conditions: read-out: Percent residual activity
Protocol: as §5

[13] = target: PAK2(h) (Homo sapiens, UniProt Q13177); assay: Kinase panel, residual activity; type: biochemical; conditions: read-out: Percent residual activity
Protocol: as §5

[14] = target: ASK1(h) (Homo sapiens, UniProt Q99683); assay: Kinase panel, residual activity; type: biochemical; conditions: read-out: Percent residual activity
Protocol: as §5

[15] = target: IGF-1R(h) (Homo sapiens, UniProt P08069); assay: Kinase panel, residual activity; type: biochemical; conditions: read-out: Percent residual activity
Protocol: as §5

[16] = target: Aurora-A(h) (Homo sapiens, UniProt O14965); assay: Kinase panel, residual activity; type: biochemical; conditions: read-out: Percent residual activity
Chain of Aurora-A(h) (O14965 whole entry): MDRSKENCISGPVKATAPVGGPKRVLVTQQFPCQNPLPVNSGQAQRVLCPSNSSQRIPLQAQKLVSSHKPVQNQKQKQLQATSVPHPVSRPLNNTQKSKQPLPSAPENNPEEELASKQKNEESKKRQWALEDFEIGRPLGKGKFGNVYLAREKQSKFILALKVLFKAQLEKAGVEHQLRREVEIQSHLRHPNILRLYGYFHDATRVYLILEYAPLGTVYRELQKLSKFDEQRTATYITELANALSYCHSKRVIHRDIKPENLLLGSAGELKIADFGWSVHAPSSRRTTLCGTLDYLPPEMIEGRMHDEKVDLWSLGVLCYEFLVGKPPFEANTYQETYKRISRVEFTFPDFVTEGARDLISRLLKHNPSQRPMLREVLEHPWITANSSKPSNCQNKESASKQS
Protocol: as §5

[17] = target: FGFR1(h) (Homo sapiens, UniProt P11362); assay: Kinase panel, residual activity; type: biochemical; conditions: read-out: Percent residual activity
Protocol: as §5

[18] = target: Flt3(h) (Homo sapiens, UniProt P36888); assay: Kinase panel, residual activity; type: biochemical; conditions: read-out: Percent residual activity
Chain of Flt3(h) (P36888 27-993): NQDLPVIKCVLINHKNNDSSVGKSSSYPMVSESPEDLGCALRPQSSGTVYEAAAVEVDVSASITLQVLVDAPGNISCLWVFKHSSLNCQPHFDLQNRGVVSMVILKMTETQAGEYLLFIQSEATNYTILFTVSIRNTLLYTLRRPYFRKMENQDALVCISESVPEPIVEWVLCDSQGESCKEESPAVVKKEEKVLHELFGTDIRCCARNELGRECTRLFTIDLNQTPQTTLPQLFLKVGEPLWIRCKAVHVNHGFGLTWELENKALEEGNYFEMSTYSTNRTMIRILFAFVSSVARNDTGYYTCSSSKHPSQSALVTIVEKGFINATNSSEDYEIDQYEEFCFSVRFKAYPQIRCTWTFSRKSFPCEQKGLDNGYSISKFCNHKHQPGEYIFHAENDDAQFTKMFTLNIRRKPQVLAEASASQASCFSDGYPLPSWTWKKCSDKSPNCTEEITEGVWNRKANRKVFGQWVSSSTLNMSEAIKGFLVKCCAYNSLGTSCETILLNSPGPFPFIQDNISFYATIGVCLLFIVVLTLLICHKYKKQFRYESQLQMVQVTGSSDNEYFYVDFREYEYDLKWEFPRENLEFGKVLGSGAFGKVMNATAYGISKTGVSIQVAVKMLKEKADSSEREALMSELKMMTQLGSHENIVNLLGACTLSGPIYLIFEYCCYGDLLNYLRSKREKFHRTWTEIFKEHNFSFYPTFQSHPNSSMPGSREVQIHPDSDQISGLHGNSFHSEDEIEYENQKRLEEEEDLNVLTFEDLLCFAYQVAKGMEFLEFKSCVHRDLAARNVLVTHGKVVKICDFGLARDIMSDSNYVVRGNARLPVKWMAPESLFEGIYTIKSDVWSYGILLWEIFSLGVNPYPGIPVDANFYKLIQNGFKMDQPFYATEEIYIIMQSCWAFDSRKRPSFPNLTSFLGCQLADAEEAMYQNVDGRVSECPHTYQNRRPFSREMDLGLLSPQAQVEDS
Protocol: as §5

[19] = target: SAPK2b(h) (Homo sapiens, UniProt Q15759); assay: Kinase panel, residual activity; type: biochemical; conditions: read-out: Percent residual activity
Protocol: as §5

[20] = target: GSK3α(h) (Homo sapiens, UniProt P49840); assay: Kinase panel, residual activity; type: biochemical; conditions: read-out: Percent residual activity
Chain of GSK3α(h) (P49840 whole entry): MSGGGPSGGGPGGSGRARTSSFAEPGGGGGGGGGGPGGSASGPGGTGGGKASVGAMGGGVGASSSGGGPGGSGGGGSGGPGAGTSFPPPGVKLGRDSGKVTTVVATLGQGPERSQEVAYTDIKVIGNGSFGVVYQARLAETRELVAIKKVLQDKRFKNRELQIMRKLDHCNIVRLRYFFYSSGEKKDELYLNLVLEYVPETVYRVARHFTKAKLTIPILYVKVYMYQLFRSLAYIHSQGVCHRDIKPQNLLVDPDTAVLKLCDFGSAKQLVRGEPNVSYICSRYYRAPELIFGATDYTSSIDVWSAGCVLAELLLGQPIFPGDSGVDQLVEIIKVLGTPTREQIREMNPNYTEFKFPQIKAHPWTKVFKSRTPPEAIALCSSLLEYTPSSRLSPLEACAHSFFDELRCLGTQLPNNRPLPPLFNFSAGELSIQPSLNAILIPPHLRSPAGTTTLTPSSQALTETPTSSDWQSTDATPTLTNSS
Protocol: as §5

[21] = tested on: COLO829 (Human melanoma, B-Raf V599E); assay: Cell proliferation assay (Cell Titer Glo); type: cell-based
Protocol: (§6) In one illustrative method, cells are treated with various concentrations of the inhibitor in 96 well plates, incubated at 37° C./5% CO2 for three days, and analyzed using the Cell Titer Glo kit (Promega).
(§7) COLO829 is a human melanoma cell line. HT29 is a human colon cancer cell line. Both cell lines have a V600E B-Raf mutation. SKOV3 is an ovarian cancer cell line having wild-type B-Raf. EKR2 (extra-cellular signal regulated kinase 2) is a kinase in the Ras/B-Raf MAP kinase cascade pathway.

[22] = tested on: HT29 (Human colon, B-Raf V599E); assay: Cell proliferation assay (Cell Titer Glo); type: cell-based
Protocol: as §6, §7

[23] = tested on: ERK1/2 activation in human T cells; conditions: tested at 0.3 to 3 μM; cited from earlier work
[24] = target: ERK2 (UniProt P28482); type: biochemical; design: other: calculated for 0.1 μM for ~10 minutes; Ki; other: ERK2; kinact/Ki; "the target Cys 172 residue
Protocol: as §1, §2, §3, §4

COc1cc(O)c2c(c1)[C@H]1O[C@@H]1C[C@H](O)[C@H](O)C(=O)/C=C\C[C@H](C)OC2=O [Hypothemycin, hypothemycin]
kinact/Ki [1]: 1900 M⁻¹ s⁻¹ | Ki ([1]; 1 mM ATP): 2700 nM | kinact ([1]; 1 mM ATP): 0.005 s⁻¹ | growth of the A375 xenograft relative to vehicle alone ([2]; administered daily at 15 mg/kg or 20 mg/kg, FIG. 6): significantly inhibits the growth | A375 xenograft growth inhibition compared with Bayer 43-9006 ([2]; hypothemycin at both dosages vs Bayer 43-9006 25 mg/kg or 50 mg/kg every other day): significantly better | Percent residual activity [3]: 94% | remaining activity at 0.2 µM ([4]; 0.2 μM): 75% | remaining activity at 2 µM ([4]; 2.0 μM): 49% | remaining activity at 0.2 µM ([5]; 0.2 μM): 93% | remaining activity at 2 µM ([5]; 2.0 μM): 21% | remaining activity at 0.2 µM ([6]; 0.2 μM): 12% | remaining activity at 2 µM ([6]; 2.0 μM): 5% | remaining activity at 0.2 µM [7]: 92% | remaining activity at 0.2 µM [8]: 99% | remaining activity at 0.2 µM [9]: 96% | remaining activity at 0.2 µM [10]: 110% | remaining activity at 0.2 µM ([11]; 0.2 μM): 91% | remaining activity at 2 µM ([11]; 2.0 μM): 90% | remaining activity at 0.2 µM [12]: 101% | remaining activity at 0.2 µM [13]: 104% | remaining activity at 0.2 µM [14]: 100% | remaining activity at 0.2 µM [15]: 107% | remaining activity at 0.2 µM ([16]; 0.2 μM): 87% | remaining activity at 2 µM ([16]; 2.0 μM): 91% | remaining activity at 0.2 µM [17]: 99% | remaining activity at 0.2 µM ([18]; 0.2 μM): 6% | remaining activity at 2 µM ([18]; 2.0 μM): 3% | remaining activity at 0.2 µM [19]: 104% | remaining activity at 0.2 µM ([20]; 0.2 μM): 90% | remaining activity at 2 µM ([20]; 2.0 μM): 88% | IC50 ([21]; COLO-829, Table 7, COLO829 human melanoma, V600E B-Raf, read-out: Cell Line IC50 COLO829): 73 ± 17 nM | GI50 ([21]; Homo sapiens, COLO-829): 50 nM | IC50 ([21]; Homo sapiens, COLO-829, read-out: Kinase Inhibitor IC50): 89 nM | IC50 ([22]; HT-29, Table 7, HT29 human colon cancer, V600E B-Raf, read-out: Cell Line IC50 HT29): 240 ± 170 nM | IC50 ([22]; Homo sapiens, HT-29, read-out: Kinase Inhibitor IC50): 100 nM | inhibition of the activation of ERK1/2 [23]: inhibit | Ki ([24]; ERK2): 2000 nM | kinact/Ki ([24]; ERK2): 1.9E+03 | ERK activity inhibited ([24]; calculated for 0.1 μM for ~10 minutes): < 5%
